“Also recorded” adds a separate entry of the source.
What was measured:
[1] = Brain levels of L-DOPA and dopamine after intranasal dosing; details: rat, 1.2 mg/kg, 2 hours post-dosing
Description: All brain levels are reported after subtraction of basal levels.

[2] = after intranasal L-DOPA administration, Nedorubov et al; cited from earlier work
[3] = Plasma pharmacokinetics of L-DOPA and dopamine after intranasal dosing; details: rat, 1.2 mg/kg

For `N[C@@H](Cc1ccc(O)c(O)c1)C(=O)O` [crystal L-DOPA, levodopa], the “dopamine levels in the brain above basal levels (in words)” value [1] is given as “below the LOQ; also recorded: below the level of detection”, the “Cmax for L-DOPA in rat brain tissue” value [2] is given as 16.94±1.52 and the “dopamine plasma concentration, single animals with a quantifiable value” ([3]; GCPQ-L-DOPA: one rat, t=0.083 hours) is given as 25 to 29 ng/mL. The dopamine plasma concentration ([3]; limit of quantification 25 ng/ml, nearly all samples) was “below the limit of quantification”, the “maximum plasma concentration of L-DOPA” value ([3]; plasma) was 53.5 ± 22.7 ng/mL and the “time of maximum L-DOPA plasma concentration (Tmax)” value ([3]; plasma) was 15 min.

From patent US20250009676A1, “COMPOSITIONS AND METHODS FOR LEVODOPA DELIVERY” (PURDUE PHARMA L.P., priority 2021, published 2025)
